Assay results reported in US7429482B2, “Screening tools for discovery of novel anabolic agents” (United States of America as represented by the Department …, priority 2005, dated 2008).
Entries after “also recorded” stand apart in the source; their conditions may differ.

Legend:
human MAFbx promoter = test: Human MAFbx promoter luciferase reporter assay in C2C12 / C2C12.AR cells; assay type: cell-based
Description: The reporter genes pMAF3.1, pMAF2.4, pMAF948, pMAF400, and pMAF400-241 express firefly luciferase under the control of promoter regions of the human MAFbx gene and are described in Example 1. The rARC562G vector, encoding rat AR with a C562->G mutation in the first zinc binding module that disrupts binding of AR to DNA was described by Palvimo et al. (Mol Endocrinol 7: 1399-1407, 1993) pAR.4RKM (expressing AR with 4 R/K->M mutations in the nuclear localization sequence that is unable to enter the nucleus) and pAR.ABC (lacking the ligand binding domain) were described by Zhou et al. (J Biol Chem 269: 13115-13123, 1994). The pBabe.puro retroviral backbone described by Morgenstern and Land (Nucleic Acids Res 18: 3587-3596, 1990) was modified by introduction of a Not1 site. The ARE reporter gene expressing firefly luciferase under control of the MMTV hormone response element, and pSP72hAR-1, containing an insert of the full-length cDNA clone of the human AR, were provided by Dr. Diane Robins (University of Michigan). pRL-CMV expressing Renilla luciferase was from Promega (Madison, Wis.).
C2C12 cells (American Type Culture Collection, Manassas, Va.) were maintained in Dulbeco's modified Eagle's Medium (DMEM) containing 10% fetal bovine serum (FBS) and penicillin (100 U/ml)/streptomycin (100 μg/ml) (growth medium). Cells were incubated at 37° C. in humidified air containing 10% CO2. 293T cells (American Type Culture Collection) were maintained in growth medium as above. Transfection was achieved using Lipofectamine-Plus (Invitrogen, Carlsbad, Calif.) using 200 ng total DNA per well.
Cells were seeded into wells of 24-well plates (5×10^5 cells/well) then maintained overnight in DMEM with 10% CDS-FBS. Cells were co-transfected with the various reporter genes and pRL-CMV. Cells were incubated in the transfection mixture overnight, then covered with DMEM supplemented with 10% charcoal-dextran-stripped FBS (CDS-FBS) and either ethanol (EtOH) or hormones dissolved in EtOH. Cells were maintained for an additional 24 hours, at which time both firefly and renilla luciferase activity were determined using the Dual Luciferase Assay (Promega, Madison, Wis.) and a Berthold 96-well plate luminometer. Firefly luciferase activities were normalized relative to renilla luciferase. Ethanol concentrations were less than 0.1%.

MAFbx = MAFbx expression in gastrocnemius of rats infused with dexamethasone with or without testosterone (qPCR); assay type: in vivo; conditions: rat, dexamethasone 0.7 mg/kg/day infusion, 7 days
Method: Muscle was flash frozen on dry ice after excision. Total RNA was isolated by phenol:chloroform extraction (Chomczynski and Sacchi, Anal Biochem 162: 156-159, 1987) and further enriched using RNAeasy minicolumns (Qiagen) with digestion on the column with RNAse-free DNAse (Qiagen).
RNA was quantified by absorbance at 260 nm. One microgram of total RNA was used to prepare cDNA libraries using the High Capacity cDNA Archive Kit (Applied Biosystems, Foster City, Calif.). Libraries were diluted 25-fold with water. Real time PCR was performed using Taqman 2×PCR buffer (Applied Biosystems) and an Applied Biosystems 7500 thermocycler. Data were normalized relative to that for 18S RNA. Relative changes in expression were determined using the 2^−ΔΔCt method. Taqman Assay on Demand probes (Applied Biosystems) were used for all assays except rat 18S RNA, which was quantified using the following […]: Forward: […] (SEQ ID NO:15); Reverse: […] (SEQ ID NO:16); Probe: FAM-[…] (SEQ ID NO:17; Labeled with FAM and non-fluoresent quencher, NFQ, at 5′ and 3′ ends, repsectively).
Male Wistar rats weighing 250 gm were anesthetized with ketamine/xylazine followed by implantation Alzet miniosmotic pumps administering vehicle (propylene glycocol), dexamethasone (0.7 mg/kg/day), or dexamethasone plus testosterone (28 mg/kg/day). […]

MAFbx mRNA = MAFbx mRNA levels in AR6 / C2C12.AR cells (qPCR); assay type: cell-based, mouse; conditions: dexamethasone overnight
Method: (A) Rats were administered test agents as indicated in the figure for 7-days, at which time animals were sacrificed and MAFbx expression was determined in gastrocnemius muscles by qPCR. Data are mean values±SEM for at least 8 animals. * p<0.05 vs vehicle, t-test. (B) AR6 cells were seeded into 6-well plates and incubated overnight in growth medium. Medium was replaced with DMEM containing 2% horse serum followed by incubation for an additional 48 hours. Hormones or vehicle (EtOH) were added to the medium and cells were incubated overnight, at which time MAFbx mRNA levels were determined by qPCR and expressed as fold-induction versus levels in cells incubated with EtOH. Data are mean values±SEM for three determinations each performed in triplicate. * p<0.05 vs. EtOH (ANOVA). (C) Effect of testosterone on MAFbx mRNA half-life. C2C12.AR cells were incubated overnight in growth medium supplemented with testosterone or vehicle (EtOH). […] Levels of MAFbx mRNA are expressed as a percentage of those at time zero. […]
RNA was quantified by absorbance at 260 nm. […] Relative changes in expression were determined using the 2^−ΔΔCt method. Taqman Assay on Demand probes (Applied Biosystems) were used for all assays except rat 18S RNA, which was quantified using the following Assay on Demand Probes: Forward: […] […]

human IGF-1 promoter = test: Human IGF-1 promoter luciferase reporter assay in HepG2 cells; assay type: cell-based
Description: pREP4.hAR, expressing full length human AR, and pCMV.Sport.β-Gal, expressing β-galactosidase under a CMV promoter, were as described (Zhao et al., Steroids 69: 357-366, 2004). pcDNA5.rGR, expressing rat glucocorticoid receptor, was provided by Dr. Diane Robins (University of Michigan). The rARC562G vector expressing rat AR with a C562G mutation in the DBD, which results in a loss of DNA binding. The IGF-1 reporter genes pOLuc.1630, pOLuc1300, pOLuc926, pOLuc 320 were provided by Dr. Peter Rotwein (Oregon Health & Science University). These reporters expressed firefly luciferase under the control of 320 to 1630 bases upstream of the transcriptional start site of the human IGF-1 promoter as described in (Kim et al., Mol Endocrinol 5: 1964-1972, 1991). pEGX 4T-1 hAR2, expressing GST fused to the N-terminus of AR DNA-binding domain, was provided by Robert J. Matusik, Ph.D. (Vanderbuilt University Medical Center). pRL-CMV expressing Renilla luciferase was from Promega (Madison, Wis.).
HepG2 cells (ATCC, Bethesda, Md.) were maintained in Dulbecco's modified Eagle's medium (DMEM), supplemented with 10% fetal bovine serum (FBS) and antibiotics (penicillin 100 U/ml, streptomycin 100 μg/ml). Cells were seeded at 5×10^4 cells/per well into wells of 24-well plates containing DMEM supplemented with 10% charcoal-dextran stripped FBS (CDS-FBS). The next day, cells were transfected with a total of 300 ng DNA per well using Lipofectamine Plus (Invitrogen) with plasmids as indicated in the figure legends. Three hours after transfection, cells were covered with DMEM supplemented with 10% CDS-FBS and either hormone dissolved in ethanol, or ethanol, as indicated in the figures. […] After overnight incubation, activities of firefly and Renilla luciferase were determined using the Dual Luciferase Assay system (Promega).
Reporter plasmids expressing firefly luciferase under the control of upstream regions of the IGF-1 promoter were constructed by PCR amplification of segments of interest using primers shown in Table 2, using pOLuc-1630 as a template. The location of each amplified fragment is relative to the transcriptional start site. PCR amplification was conduced using a high fidelity Taq polymerase (Pfx, Invitrogen). PCR products were cloned into pCR2.1-TOPO TA (Invitrogen) and the sequences of the inserts were verified. Inserts were excised with Kpn I and Xho I, and were subcloned into pGL3-Promoter (Promega) at these same sites. PGL3-Promoter expresses firefly luciferase under the control of a minimal promoter.

**Q.** Which “increase in luciferase expression of pMAF3.1 reporter” value (human MAFbx promoter; C2C12.AR cells, dexamethasone) does the source give for `C[C@@H]1C[C@H]2[C@@H]3CCC4=CC(=O)C=C[C@]4(C)[C@@]3(F)[C@@H](O)C[C@]2(C)[C@@]1(O)C(=O)CO` [dexamethasone] here?
**A.** more than 1.5 fold

**Q.** And the “increase in expression of MAFbx in gastrocnemius muscle” value (MAFbx)?
**A.** ~4 fold

**Q.** And the “increase in MAFbx mRNA expression” value (MAFbx mRNA)?
**A.** approximately 3 fold

**Q.** What about the “activation of reporters incorporating ARE2 or both AREs (p3-13a and p3-32)” value (human IGF-1 promoter; HepG2 + GR, dexamethasone) of the same compound?
**A.** 5 fold

**Q.** What about the “induction of luciferase expression, reporters incorporating ARE1 (p3-230 and p3-22)” value (human IGF-1 promoter; HepG2 + GR, dexamethasone) of the same compound?
**A.** less than 2 fold

**Q.** Which results are given for `C[C@]12COC(=O)C[C@@H]1CC[C@@H]1[C@@H]2CC[C@@]2(C)[C@H]1CC[C@]2(C)O` [oxandrolone]?
**A.** suppression of reporter under control of 3.1 of the MAFbx upstream promoter (human MAFbx promoter; C2C12 muscle cells, 5 μM): 15%; expression of MAFbx reporter (general statement) (human MAFbx promoter; cells transduced with the MAFbx reporter construct): does not decrease; also recorded: less effective; activation of the upstream promoter of the human IGF-1 gene (human IGF-1 promoter; Hep G2 cells, FIG. 18): does not induce and not
